# In PubChem BioAssay (NCI):
#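 Here, GI50 denotes the concentration required for 50% inhibition of growth. TGI marks complete inhibition of growth.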
# Tests used:
# Assay in all cases: growth of human tumour cells (NCI), 384-well format
# IGROV1 ovarian = test system: IGROV1 ovarian
# PC-3 prostate = test system: PC-3 prostate
# KM12 colon = test system: KM12 colon
# BT-549 breast = test system: BT-549 breast
# SF-295 CNS = test system: SF-295 CNS
# HS 578T breast = test system: HS 578T breast
# SNB-19 CNS = test system: SNB-19 CNS
# HL-60(TB) leukemia = test system: HL-60(TB) leukemia
# NCI-H322M lung = test system: NCI-H322M lung
# DU-145 prostate = test system: DU-145 prostate
# UACC-62 melanoma = test system: UACC-62 melanoma
# UACC-257 melanoma = test system: UACC-257 melanoma
# SW-620 colon = test system: SW-620 colon
# OVCAR-5 ovarian = test system: OVCAR-5 ovarian
# MDA-MB-435 melanoma = test system: MDA-MB-435 melanoma
# HOP-62 NSCLC = test system: HOP-62 NSCLC
# SK-MEL-28 melanoma = test system: SK-MEL-28 melanoma
# NCI-H23 lung = test system: NCI-H23 lung
# HCT-116 colon = test system: HCT-116 colon
# 786-0 renal = test system: 786-0 renal
# ACHN renal = test system: ACHN renal
# CAKI-1 renal = test system: CAKI-1 renal
# HCT-15 colon = test system: HCT-15 colon
# OVCAR-4 ovarian = test system: OVCAR-4 ovarian
# MOLT-4 leukemia = test system: MOLT-4 leukemia
# U251 glioblastoma = test system: U251 glioblastoma
# SNB-75 CNS = test system: SNB-75 CNS
# MDA-MB-231 breast = test system: MDA-MB-231 breast
# OVCAR-8 ovarian = test system: OVCAR-8 ovarian
# NCI-H522 lung = test system: NCI-H522 lung
# EKVX NSCLC = test system: EKVX NSCLC
# SF-539 CNS = test system: SF-539 CNS
# SR leukemia = test system: SR leukemia
# COLO 205 colon = test system: COLO 205 colon
# MALME-3M melanoma = test system: MALME-3M melanoma
# RXF 393 renal = test system: RXF 393 renal
# OVCAR-3 ovarian = test system: OVCAR-3 ovarian
# HCC-2998 colon = test system: HCC-2998 colon
# NCI/ADR-RES ovarian = test system: NCI/ADR-RES ovarian
# MCF7 breast = test system: MCF7 breast
# HT29 colon = test system: HT29 colon
# SK-OV-3 ovarian = test system: SK-OV-3 ovarian
# A498 renal = test system: A498 renal
# MDA-MB-468 breast = test system: MDA-MB-468 breast
# UO-31 renal = test system: UO-31 renal
# NCI-H460 NSCLC = test system: NCI-H460 NSCLC
# NCI-H226 lung = test system: NCI-H226 lung
# SF-268 CNS = test system: SF-268 CNS
# LOX IMVI melanoma = test system: LOX IMVI melanoma
# SN12C renal = test system: SN12C renal
# SK-MEL-5 melanoma = test system: SK-MEL-5 melanoma
# HOP-92 NSCLC = test system: HOP-92 NSCLC
# RPMI-8226 leukemia = test system: RPMI-8226 leukemia
# TK-10 renal = test system: TK-10 renal
# M14 melanoma = test system: M14 melanoma
# A549 NSCLC = test system: A549 NSCLC
structure (smiles),measurement,setting,value
O=C(c1ccc(OCCN2CCCCC2)cc1)c1c(-c2ccc(O)cc2)sc2cc(O)ccc12,GI50,IGROV1 ovarian,2.75 µM
same,TGI,IGROV1 ovarian,7.87 µM
same,GI50,PC-3 prostate,2.17 µM
same,TGI,PC-3 prostate,4.97 µM
same,GI50,KM12 colon,4.09 µM
same,TGI,KM12 colon,12.7 µM
same,GI50,BT-549 breast,1.59 µM
same,TGI,BT-549 breast,3.74 µM
same,GI50,SF-295 CNS,12.8 µM
same,TGI,SF-295 CNS,25.5 µM
same,GI50,HS 578T breast,2.5 µM
same,TGI,HS 578T breast,6.72 µM
same,GI50,SNB-19 CNS,11.7 µM
same,TGI,SNB-19 CNS,24.1 µM
same,GI50,HL-60(TB) leukemia,1.83 µM
same,TGI,HL-60(TB) leukemia,3.25 µM
same,GI50,NCI-H322M lung,1.86 µM
same,TGI,NCI-H322M lung,4.78 µM
same,GI50,DU-145 prostate,10.8 µM
same,TGI,DU-145 prostate,22.7 µM
same,GI50,UACC-62 melanoma,5.22 µM
same,TGI,UACC-62 melanoma,17.3 µM
same,GI50,UACC-257 melanoma,1.96 µM
same,TGI,UACC-257 melanoma,3.61 µM
same,GI50,SW-620 colon,12.5 µM
same,TGI,SW-620 colon,25.1 µM
same,GI50,OVCAR-5 ovarian,5.94 µM
same,TGI,OVCAR-5 ovarian,18.2 µM
same,GI50,MDA-MB-435 melanoma,4.38 µM
same,TGI,MDA-MB-435 melanoma,10.9 µM
same,GI50,HOP-62 NSCLC,3.31 µM
same,TGI,HOP-62 NSCLC,10.8 µM
same,GI50,SK-MEL-28 melanoma,2.54 µM
same,TGI,SK-MEL-28 melanoma,7.63 µM
same,GI50,NCI-H23 lung,3.46 µM
same,TGI,NCI-H23 lung,12.7 µM
same,GI50,HCT-116 colon,3.39 µM
same,TGI,HCT-116 colon,12.3 µM
same,GI50,786-0 renal,1.55 µM
same,TGI,786-0 renal,2.94 µM
same,GI50,ACHN renal,4.02 µM
same,TGI,ACHN renal,12.9 µM
same,GI50,CAKI-1 renal,2.15 µM
same,TGI,CAKI-1 renal,5.11 µM
same,GI50,HCT-15 colon,1.26 µM
same,TGI,HCT-15 colon,3.51 µM
same,GI50,OVCAR-4 ovarian,8.87 µM
same,TGI,OVCAR-4 ovarian,20.6 µM
same,GI50,MOLT-4 leukemia,1.8 µM
same,TGI,MOLT-4 leukemia,4.59 µM
same,GI50,U251 glioblastoma,4.07 µM
same,TGI,U251 glioblastoma,13.4 µM
same,GI50,SNB-75 CNS,2.69 µM
same,TGI,SNB-75 CNS,8.46 µM
same,GI50,MDA-MB-231 breast,2.2 µM
same,TGI,MDA-MB-231 breast,4.97 µM
same,GI50,OVCAR-8 ovarian,4.04 µM
same,TGI,OVCAR-8 ovarian,14 µM
same,GI50,NCI-H522 lung,7.17 µM
same,TGI,NCI-H522 lung,19.7 µM
same,GI50,EKVX NSCLC,6.23 µM
same,TGI,EKVX NSCLC,18.5 µM
same,GI50,SF-539 CNS,3.27 µM
same,TGI,SF-539 CNS,11.3 µM
same,GI50,SR leukemia,3.15 µM
same,TGI,SR leukemia,4.65 µM
same,GI50,COLO 205 colon,17.1 µM
same,TGI,COLO 205 colon,30.9 µM
same,GI50,MALME-3M melanoma,1.48 µM
same,TGI,MALME-3M melanoma,2.83 µM
same,GI50,RXF 393 renal,2.29 µM
same,TGI,RXF 393 renal,5.12 µM
same,GI50,OVCAR-3 ovarian,4.33 µM
same,TGI,OVCAR-3 ovarian,16.6 µM
same,GI50,HCC-2998 colon,3.71 µM
same,TGI,HCC-2998 colon,12.3 µM
same,GI50,NCI/ADR-RES ovarian,4.4 µM
same,TGI,NCI/ADR-RES ovarian,15.1 µM
same,TGI,MCF7 breast,2.78 µM
same,GI50,HT29 colon,5.05 µM
same,TGI,HT29 colon,16.8 µM
same,GI50,SK-OV-3 ovarian,9.94 µM
same,TGI,SK-OV-3 ovarian,21.6 µM
same,GI50,A498 renal,2.11 µM
same,TGI,A498 renal,4.43 µM
same,GI50,MDA-MB-468 breast,3.08 µM
same,TGI,MDA-MB-468 breast,7.65 µM
same,GI50,UO-31 renal,2.59 µM
same,TGI,UO-31 renal,7.34 µM
same,GI50,NCI-H460 NSCLC,8.87 µM
same,TGI,NCI-H460 NSCLC,21 µM
same,GI50,NCI-H226 lung,3.27 µM
same,TGI,NCI-H226 lung,11.2 µM
same,GI50,SF-268 CNS,5.08 µM
same,TGI,SF-268 CNS,17.2 µM
same,GI50,LOX IMVI melanoma,1.84 µM
same,TGI,LOX IMVI melanoma,3.43 µM
same,GI50,SN12C renal,12.6 µM
same,TGI,SN12C renal,25.2 µM
same,GI50,SK-MEL-5 melanoma,1.49 µM
same,TGI,SK-MEL-5 melanoma,3.21 µM
same,GI50,HOP-92 NSCLC,2.04 µM
same,TGI,HOP-92 NSCLC,5.03 µM
same,GI50,RPMI-8226 leukemia,2.78 µM
same,TGI,RPMI-8226 leukemia,5.32 µM
same,GI50,TK-10 renal,9.63 µM
same,TGI,TK-10 renal,21.4 µM
same,GI50,M14 melanoma,2.09 µM
same,TGI,M14 melanoma,3.88 µM
same,GI50,A549 NSCLC,4.42 µM
same,TGI,A549 NSCLC,15.4 µM
